# From the supplement of paper PMC10307832
# Assays:
# Test in all cases: relative viability (nuclei count vs DMSO), 5 days (fraction); higher = more cells survive
# [1] = test system: BEN
# In short: (§1)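 Medians of duplicate plates are given as relative viability. That measure is the nuclei count in treated wells divided by the count in vehicle wells. Counts were taken on 4× images of lung cancer cell lines in 1536-well plates, 5 days after pin-tool dosing the day after seeding with one drug alone or a fixed anchor-drug dose plus five library-drug doses (not always all listed) in √10 steps.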
# [2] = test system: CAL-12T
# In short: as §1
# [3] = test system: EKVX
# In short: as §1
# [4] = test system: HCC-366
# In short: as §1
# [5] = test system: HCC-44
# In short: as §1
# [6] = test system: LOU-NH91
# In short: as §1
# [7] = test system: LU99A
# In short: as §1
# [8] = test system: NCI-H1355
# In short: as §1
# [9] = test system: NCI-H1395
# In short: as §1
# [10] = test system: NCI-H1437
# In short: as §1
# [11] = test system: NCI-H1563
# In short: as §1
# [12] = test system: NCI-H1650
# In short: as §1
# [13] = test system: NCI-H1651
# In short: as §1
# [14] = test system: NCI-H1734
# In short: as §1
# [15] = test system: NCI-H1755
# In short: as §1
# [16] = test system: NCI-H1975
# In short: as §1
# [17] = test system: NCI-H2023
# In short: as §1
# [18] = test system: NCI-H2085
# In short: as §1
# [19] = test system: NCI-H2342
# In short: as §1
# [20] = test system: NCI-H358
# In short: as §1
# [21] = test system: NCI-H441
# In short: as §1
# [22] = test system: NCI-H460
# In short: as §1
# [23] = test system: NCI-H838
# In short: as §1
compound,measurement,setting,value
O=C(O)c1ccc(-c2c[nH]c3ncc(-c4ccccc4)cc23)cc1C1CCCC1 + N=C(N)NC(=N)NCCc1ccccc1 [Phenformin] (partner 250 µM),relative viability,[1]; first compound 0.04 µM,0.274
same,relative viability,[1]; first compound 0.1265 µM,0.283
same,relative viability,[1]; first compound 0.4 µM,0.247
same,relative viability,[1]; first compound 1.265 µM,0.246
same,relative viability,[2]; first compound 0.04 µM,0.549
same,relative viability,[2]; first compound 0.1265 µM,0.629
same,relative viability,[2]; first compound 0.4 µM,0.579
same,relative viability,[2]; first compound 1.265 µM,0.337
same,relative viability,[3]; first compound 0.04 µM,0.249
same,relative viability,[3]; first compound 0.1265 µM,0.225
same,relative viability,[3]; first compound 0.4 µM,0.245
same,relative viability,[3]; first compound 1.265 µM,0.219
same,relative viability,[4]; first compound 0.04 µM,0.686
same,relative viability,[4]; first compound 0.1265 µM,0.631
same,relative viability,[4]; first compound 0.4 µM,0.607
same,relative viability,[4]; first compound 1.265 µM,0.611
same,relative viability,[5]; first compound 0.04 µM,0.198
same,relative viability,[5]; first compound 0.1265 µM,0.295
same,relative viability,[5]; first compound 0.4 µM,0.224
same,relative viability,[5]; first compound 1.265 µM,0.141
same,relative viability,[6]; first compound 0.04 µM,0.73
same,relative viability,[6]; first compound 0.1265 µM,0.885
same,relative viability,[6]; first compound 0.4 µM,0.799
same,relative viability,[6]; first compound 1.265 µM,0.751
same,relative viability,[7]; first compound 0.04 µM,0.961
same,relative viability,[7]; first compound 0.1265 µM,0.784
same,relative viability,[7]; first compound 0.4 µM,0.865
same,relative viability,[7]; first compound 1.265 µM,0.606
same,relative viability,[8]; first compound 0.04 µM,0.446
same,relative viability,[8]; first compound 0.1265 µM,0.462
same,relative viability,[8]; first compound 0.4 µM,0.453
same,relative viability,[8]; first compound 1.265 µM,0.276
same,relative viability,[9]; first compound 0.04 µM,0.452
same,relative viability,[9]; first compound 0.1265 µM,0.44
same,relative viability,[9]; first compound 0.4 µM,0.413
same,relative viability,[9]; first compound 1.265 µM,0.414
same,relative viability,[10]; first compound 0.04 µM,0.295
same,relative viability,[10]; first compound 0.1265 µM,0.298
same,relative viability,[10]; first compound 0.4 µM,0.319
same,relative viability,[10]; first compound 1.265 µM,0.202
same,relative viability,[11]; first compound 0.04 µM,0.679
same,relative viability,[11]; first compound 0.1265 µM,0.679
same,relative viability,[11]; first compound 0.4 µM,0.634
same,relative viability,[11]; first compound 1.265 µM,0.654
same,relative viability,[12]; first compound 0.04 µM,0.469
same,relative viability,[12]; first compound 0.1265 µM,0.472
same,relative viability,[12]; first compound 0.4 µM,0.338
same,relative viability,[12]; first compound 1.265 µM,0.2
same,relative viability,[13]; first compound 0.04 µM,0.349
same,relative viability,[13]; first compound 0.1265 µM,0.328
same,relative viability,[13]; first compound 0.4 µM,0.278
same,relative viability,[13]; first compound 1.265 µM,0.189
same,relative viability,[14]; first compound 0.04 µM,0.419
same,relative viability,[14]; first compound 0.1265 µM,0.452
same,relative viability,[14]; first compound 0.4 µM,0.371
same,relative viability,[14]; first compound 1.265 µM,0.358
same,relative viability,[15]; first compound 0.04 µM,0.597
same,relative viability,[15]; first compound 0.1265 µM,0.615
same,relative viability,[15]; first compound 0.4 µM,0.64
same,relative viability,[15]; first compound 1.265 µM,0.604
same,relative viability,[16]; first compound 0.04 µM,0.41
same,relative viability,[16]; first compound 0.1265 µM,0.423
same,relative viability,[16]; first compound 0.4 µM,0.388
same,relative viability,[16]; first compound 1.265 µM,0.298
same,relative viability,[17]; first compound 0.04 µM,0.412
same,relative viability,[17]; first compound 0.1265 µM,0.491
same,relative viability,[17]; first compound 0.4 µM,0.44
same,relative viability,[17]; first compound 1.265 µM,0.278
same,relative viability,[18]; first compound 0.04 µM,0.84
same,relative viability,[18]; first compound 0.1265 µM,0.897
same,relative viability,[18]; first compound 0.4 µM,0.688
same,relative viability,[18]; first compound 1.265 µM,0.595
same,relative viability,[19]; first compound 0.04 µM,0.512
same,relative viability,[19]; first compound 0.1265 µM,0.693
same,relative viability,[19]; first compound 0.4 µM,0.623
same,relative viability,[19]; first compound 1.265 µM,0.491
same,relative viability,[20]; first compound 0.04 µM,0.347
same,relative viability,[20]; first compound 0.1265 µM,0.379
same,relative viability,[20]; first compound 0.4 µM,0.292
same,relative viability,[20]; first compound 1.265 µM,0.124
same,relative viability,[21]; first compound 0.04 µM,0.765
same,relative viability,[21]; first compound 0.1265 µM,1.15
same,relative viability,[21]; first compound 0.4 µM,0.807
same,relative viability,[21]; first compound 1.265 µM,0.28
same,relative viability,[22]; first compound 0.04 µM,0.536
same,relative viability,[22]; first compound 0.1265 µM,0.526
same,relative viability,[22]; first compound 0.4 µM,0.507
same,relative viability,[22]; first compound 1.265 µM,0.46
same,relative viability,[23]; first compound 0.04 µM,0.542
same,relative viability,[23]; first compound 0.1265 µM,0.655
same,relative viability,[23]; first compound 0.4 µM,0.596
same,relative viability,[23]; first compound 1.265 µM,0.511
O=C(O)c1ccc(-c2c[nH]c3ncc(-c4ccccc4)cc23)cc1C1CCCC1 + Nc1nc2[nH]cc(CCc3ccc(C(=O)N[C@@H](CCC(=O)O)C(=O)O)cc3)c2c(=O)[nH]1 [Pemetrexed] (partner 0.2 µM),relative viability,[1]; first compound 0.04 µM,0.598
same,relative viability,[1]; first compound 0.1265 µM,0.862
same,relative viability,[1]; first compound 0.4 µM,0.792
same,relative viability,[1]; first compound 1.265 µM,0.788
same,relative viability,[2]; first compound 0.04 µM,1.15
same,relative viability,[2]; first compound 0.1265 µM,1.04
same,relative viability,[2]; first compound 0.4 µM,1.1
same,relative viability,[2]; first compound 1.265 µM,1.09
same,relative viability,[3]; first compound 0.04 µM,0.397
same,relative viability,[3]; first compound 0.1265 µM,0.576
same,relative viability,[3]; first compound 0.4 µM,0.376
same,relative viability,[3]; first compound 1.265 µM,0.409
same,relative viability,[4]; first compound 0.04 µM,0.178
same,relative viability,[4]; first compound 0.1265 µM,0.203
same,relative viability,[4]; first compound 0.4 µM,0.149
same,relative viability,[4]; first compound 1.265 µM,0.187
same,relative viability,[5]; first compound 0.04 µM,0.654
same,relative viability,[5]; first compound 0.1265 µM,0.578
same,relative viability,[5]; first compound 0.4 µM,0.68
same,relative viability,[5]; first compound 1.265 µM,0.598
same,relative viability,[6]; first compound 0.04 µM,0.419
same,relative viability,[6]; first compound 0.1265 µM,0.404
same,relative viability,[6]; first compound 0.4 µM,0.414
same,relative viability,[6]; first compound 1.265 µM,0.435
same,relative viability,[7]; first compound 0.04 µM,0.166
same,relative viability,[7]; first compound 0.1265 µM,0.192
same,relative viability,[7]; first compound 0.4 µM,0.187
same,relative viability,[7]; first compound 1.265 µM,0.202
same,relative viability,[8]; first compound 0.04 µM,0.991
same,relative viability,[8]; first compound 0.1265 µM,1.13
same,relative viability,[8]; first compound 0.4 µM,1.12
same,relative viability,[8]; first compound 1.265 µM,0.756
same,relative viability,[9]; first compound 0.04 µM,0.949
same,relative viability,[9]; first compound 0.1265 µM,1.14
same,relative viability,[9]; first compound 0.4 µM,0.774
same,relative viability,[9]; first compound 1.265 µM,0.858
same,relative viability,[10]; first compound 0.04 µM,0.338
same,relative viability,[10]; first compound 0.1265 µM,0.33
same,relative viability,[10]; first compound 0.4 µM,0.311
same,relative viability,[10]; first compound 1.265 µM,0.295
same,relative viability,[11]; first compound 0.04 µM,0.698
same,relative viability,[11]; first compound 0.1265 µM,0.948
same,relative viability,[11]; first compound 0.4 µM,0.789
same,relative viability,[11]; first compound 1.265 µM,0.892
same,relative viability,[12]; first compound 0.04 µM,0.352
same,relative viability,[12]; first compound 0.1265 µM,0.466
same,relative viability,[12]; first compound 0.4 µM,0.383
same,relative viability,[12]; first compound 1.265 µM,0.33
same,relative viability,[13]; first compound 0.04 µM,0.482
same,relative viability,[13]; first compound 0.1265 µM,0.603
same,relative viability,[13]; first compound 0.4 µM,0.641
same,relative viability,[13]; first compound 1.265 µM,0.527
same,relative viability,[14]; first compound 0.04 µM,0.413
same,relative viability,[14]; first compound 0.1265 µM,0.43
same,relative viability,[14]; first compound 0.4 µM,0.428
same,relative viability,[14]; first compound 1.265 µM,0.411
same,relative viability,[15]; first compound 0.04 µM,0.412
same,relative viability,[15]; first compound 0.1265 µM,0.449
same,relative viability,[15]; first compound 0.4 µM,0.405
same,relative viability,[15]; first compound 1.265 µM,0.436
same,relative viability,[16]; first compound 0.04 µM,0.301
same,relative viability,[16]; first compound 0.1265 µM,0.298
same,relative viability,[16]; first compound 0.4 µM,0.284
same,relative viability,[16]; first compound 1.265 µM,0.28
same,relative viability,[17]; first compound 0.04 µM,0.23
same,relative viability,[17]; first compound 0.1265 µM,0.271
same,relative viability,[17]; first compound 0.4 µM,0.28
same,relative viability,[17]; first compound 1.265 µM,0.237
same,relative viability,[18]; first compound 0.04 µM,0.821
same,relative viability,[18]; first compound 0.1265 µM,0.951
same,relative viability,[18]; first compound 0.4 µM,0.882
same,relative viability,[18]; first compound 1.265 µM,0.654
same,relative viability,[19]; first compound 0.04 µM,0.804
same,relative viability,[19]; first compound 0.1265 µM,0.816
same,relative viability,[19]; first compound 0.4 µM,0.765
same,relative viability,[19]; first compound 1.265 µM,0.74
same,relative viability,[20]; first compound 0.04 µM,0.17
same,relative viability,[20]; first compound 0.1265 µM,0.186
same,relative viability,[20]; first compound 0.4 µM,0.181
same,relative viability,[20]; first compound 1.265 µM,0.148
same,relative viability,[21]; first compound 0.04 µM,0.33
same,relative viability,[21]; first compound 0.1265 µM,0.285
same,relative viability,[21]; first compound 0.4 µM,0.256
same,relative viability,[21]; first compound 1.265 µM,0.235
same,relative viability,[22]; first compound 0.04 µM,0.0611
same,relative viability,[22]; first compound 0.1265 µM,0.0579
same,relative viability,[22]; first compound 0.4 µM,0.0617
same,relative viability,[22]; first compound 1.265 µM,0.0609
same,relative viability,[23]; first compound 0.04 µM,0.25
same,relative viability,[23]; first compound 0.1265 µM,0.265
same,relative viability,[23]; first compound 0.4 µM,0.253
same,relative viability,[23]; first compound 1.265 µM,0.227
